The values below come from paper PMC2011106, “Structure/activity relationships for the enhancement by electron-affinic drugs of the anti-tumour effect of CCNU” (British Journal of Cancer, 1982).

Structures are written as SMILES. Entries after “also recorded” stand apart in the source; their conditions may differ. Counter-ions that a name gives are not always drawn. Like-named read-outs stand apart in the source and are kept apart here. A value given as a limit tells only on which side of the number the result lay.

One series deals with KHT sarcoma. Put plainly: regrowth-delay assay: enhancement of the anti-tumour effect of CCNU. It counts as in vivo, C3H mice. As to conditions: for enhancement of CCNU response relative to MISO: 2.5 mmol/kg 30 min before 10 mg/kg CCNU; for growth delay, test compound given alone: without CCNU; for sensitizer dose/response curve, activity: Fig. 4, various sensitizer doses.
The conditions of series [1]: for toxicity at 2.5 mmol/kg: 2.5 mmol/kg i.p.; for toxicity: dose not stated, tested at MTD.
In another series the test system is KHT tumour. More on the design: method as in Rauth et al. (1978). The conditions noted are these: same tumour and mouse strain, similar timing; ref Rauth et al. (1978); cited from earlier work.
The test system of another series is ascites L1210 leukaemia. Also noted: method as in Klubes et al., 1979. As to conditions: mice; ref Klubes et al., 1979; cited from earlier work.
The next series deals with RIF-1 sarcoma. Also noted: method as in Siemann (1982). The conditions noted are these: 5 mmol/kg; ref Siemann (1982); cited from earlier work.
Where [2] appears, read: at close to maximum tolerated dose (MTD, below 2.5 mmol/kg) 30 min before 10 mg/kg CCNU.

On to `O=[N+]([O-])c1cncn1CCN1CCOCC1` [nimorazole], for which, in the series with KHT sarcoma, the “enhancement of CCNU response relative to MISO” value is on record as “activities similar or even superior to MISO”.

In the case of `COCC(O)Cn1ccnc1[N+](=O)[O-]` (stereo not shown) [MISO, misonidazole], in the series on KHT sarcoma (mouse, in vivo, 10 mg/kg), the “Activity Index (AI) for enhancement of CCNU effect” value is given as 1. Where the note is “mouse, in vivo”, the “decrease in body temperature” value is 1-2.

As to `O=C1c2ccccc2C(=O)c2cc(S(=O)(=O)O)ccc21` [anthraquinone sulphonate, anthraquinone-2-sulphonate], the “enhancement of CCNU response relative to MISO” value in the series with KHT sarcoma is “reasonable activity”. For the same compound, the “decrease in body temperature” value (2.5 mmol/kg) is 5-6 °C. In addition, the “toxicity at 2.5 mmol/kg” value in series [1] was “non-toxic”.

With `O=[N+]([O-])c1nccn1CC(O)CO` (stereo not shown) [DEMIS, desmethylmisonida- zole], the “enhancement of CCNU response relative to MISO” value with KHT sarcoma is “considerably less active than MISO”. For the same compound, in the series with KHT tumour, the “in vivo radiosensitization” value is listed as “good radiosensitization”.

As for `CC1=C(C)C(=O)C(C)=C(C)C1=O` [duroquinone], in the series on KHT sarcoma (setting [2]), the “enhancement of CCNU response” value is listed as “little or no activity”. Besides, in series [1], the “toxicity” value was “quite toxic”.

As to `CCCC(C(=O)OCCN(CC)CC)(c1ccccc1)c1ccccc1` [SKF 525A, proadifen hydrochloride], the “enhancement of CCNU response” value in the series on KHT sarcoma (0.13 mmol/kg, 10 mg/kg CCNU, 10 mg/kg) was “increased the anti-tumour effect of CCNU; also recorded: active”. In addition, in the series with ascites L1210 leukaemia, the “effect on LD50 of methyl-CCNU” value is “reducing the LD50” and the “response of ascites L1210 leukaemia to methyl-CCNU” value is “increased the response”.

As for `NC(=O)N/N=C/c1ccc([N+](=O)[O-])o1` [nitrofurazone], in the series with KHT sarcoma (setting [2]), the “enhancement of CCNU response” value is given as “reasonable activity; also recorded: reasonably active, but less than 2-5 mmol/kg MISO”. In series [1], the “toxicity at 2.5 mmol/kg” value was “toxic”.

`Cn1cnc([N+](=O)[O-])c1S(=O)(=O)Oc1ccccc1` [NSC 38087]: the “enhancement of CCNU response” value in the series with KHT sarcoma (setting [2]) is listed as “little activity at MTD”. In addition, in series [1], the “toxicity at 2.5 mmol/kg” value is “toxic” and the “toxicity” value is “highly toxic”.

`O=NN(CCCl)C(=O)NC1CCCCC1` [CCNU, 1-(2-chloroethyl)-3-cyclohexyl-1-nitrosurea]: the median growth delay with KHT sarcoma (CCNU 20 mg/kg alone, 11 independent experiments) worked out at 10 days.

Turning to `O=[N+]([O-])c1nccn1CC(O)CN1CCCCC1` (stereo not shown) [compound 13], the “enhancement of CCNU response relative to MISO” value is listed as “Neither was more effective than MISO” in the series with KHT sarcoma and “slightly less than MISO” in the series with KHT sarcoma (listed as Ro 03-8799).

As for `NC(=O)c1cc(N2CC2)c([N+](=O)[O-])cc1[N+](=O)[O-]` [CB 1954, 2,4-dinitro-5-aziridinylbenzamide], in the series on KHT sarcoma (mouse, in vivo), the “enhancement of CCNU response” value is reported as “no enhancement of CCNU response at MTD”. The “growth delay, test compound given alone” value in the series on KHT sarcoma was “about 1 day”. Further, in series [1], the “toxicity at 2.5 mmol/kg” value is on record as “toxic” and the “toxicity” value is reported as “rather toxic”.

Consider `O=C(Cn1ccnc1[N+](=O)[O-])NCCO` [SR-2508], for which, in the series on RIF-1 sarcoma, the “enhancement of RIF-1 tumour response to CCNU” value is “Some enhancement”.

On to `CC1=CC(=O)c2ccccc2C1=O` [menadione], for which the “enhancement of CCNU response” value in the series on KHT sarcoma (setting [2]) is on record as “little or no activity”. Besides, the “toxicity” value in series [1] is listed as “quite toxic”.

For `Cc1ncc([N+](=O)[O-])n1CCO` [METRO, metronidazole], the “enhancement of CCNU response relative to MISO” value with KHT sarcoma is listed as “activities similar or even superior to MISO”. Besides, in the series on KHT sarcoma (10 mmol/kg + 10 mg/kg CCNU, Fig. 4), the “tumour response” value is on record as “about the same as with 2-5 mmol/kg MISO”. The “sensitizer dose/response curve, activity” value in the series with KHT sarcoma (10 mg/kg CCNU) was “rather less active than MISO”. In addition, the “decrease in body temperature” value (10 mmol/kg) came out at 10 °C.

In the case of `O=C1CN(/N=C/c2ccc([N+](=O)[O-])o2)C(=O)N1` [nitrofurantoin], the “enhancement of CCNU response” value in the series on KHT sarcoma (setting [2]) is “virtually inactive”. The “toxicity at 2.5 mmol/kg” value in series [1] is on record as “toxic”.

Regarding `c1c[nH]cn1` [imidazole], in the series on KHT sarcoma (5 mmol/kg (not shown), 10 mg/kg CCNU), the “enhancement of CCNU response” value is “ineffective”.

Take `Cn1cnc([N+](=O)[O-])c1Sc1ncnc2nc[nH]c12` [azathioprine]: the “enhancement of CCNU response” value is “superior to 2-5 mmol/kg MISO” in the series with KHT sarcoma (1.4 mmol/kg, compared with 2.5 mmol/kg MISO, 10 mg/kg CCNU) and “more active than MISO” in the series on KHT sarcoma (setting [2]). Moreover, the “growth delay, test compound given alone” value in the series on KHT sarcoma is on record as “about 1 day”. Besides, the “toxicity at 2.5 mmol/kg” value in series [1] is recorded as “toxic”.

Consider `O=C(Cn1ccnc1[N+](=O)[O-])NCc1ccccc1` [BENZO, benznidazole], for which the “enhancement of CCNU response relative to MISO” value in the series on KHT sarcoma is on record as “most active”. Besides, the “dose-modifying factor (DMF)” value in the series on KHT sarcoma (2.5 mmol/kg + 10 mg/kg CCNU compared with 20 mg/kg CCNU alone) is listed as greater than 2. Moreover, the “sensitizer dose/response curve, activity” value in the series with KHT sarcoma (10 mg/kg CCNU) was “good activity at doses down to 0-05-0-1 mmol/kg”. Besides, in the series on KHT sarcoma (low doses 0.1-0.9 mmol/kg, 10 mg/kg CCNU), the “activity relative to MISO at low doses” value was “considerably more active than MISO”.
